According to US20170334899A1, “AMINO-SUBSTITUTED ISOTHIAZOLES” (Bayer Pharma Aktiengesellschaft, priority 2014, published 2017):
Counter-ions that a name gives are not always drawn.

Each molecule was assayed against T1, human kinase Mps-1 (Homo sapiens, UniProt P33981) (assay: Mps-1 kinase assay (TR-FRET)). Conditions: Mps-1 TR-FRET kinase assay; avg; read-out: Mps1 avg (IC50 [mol/l]).
T1 construct: N-terminally GST-tagged human full length recombinant Mps-1 kinase; GST (N); purchased Invitrogen, Karslruhe, Germany PV4071
T1 sequence (P33981 1-857): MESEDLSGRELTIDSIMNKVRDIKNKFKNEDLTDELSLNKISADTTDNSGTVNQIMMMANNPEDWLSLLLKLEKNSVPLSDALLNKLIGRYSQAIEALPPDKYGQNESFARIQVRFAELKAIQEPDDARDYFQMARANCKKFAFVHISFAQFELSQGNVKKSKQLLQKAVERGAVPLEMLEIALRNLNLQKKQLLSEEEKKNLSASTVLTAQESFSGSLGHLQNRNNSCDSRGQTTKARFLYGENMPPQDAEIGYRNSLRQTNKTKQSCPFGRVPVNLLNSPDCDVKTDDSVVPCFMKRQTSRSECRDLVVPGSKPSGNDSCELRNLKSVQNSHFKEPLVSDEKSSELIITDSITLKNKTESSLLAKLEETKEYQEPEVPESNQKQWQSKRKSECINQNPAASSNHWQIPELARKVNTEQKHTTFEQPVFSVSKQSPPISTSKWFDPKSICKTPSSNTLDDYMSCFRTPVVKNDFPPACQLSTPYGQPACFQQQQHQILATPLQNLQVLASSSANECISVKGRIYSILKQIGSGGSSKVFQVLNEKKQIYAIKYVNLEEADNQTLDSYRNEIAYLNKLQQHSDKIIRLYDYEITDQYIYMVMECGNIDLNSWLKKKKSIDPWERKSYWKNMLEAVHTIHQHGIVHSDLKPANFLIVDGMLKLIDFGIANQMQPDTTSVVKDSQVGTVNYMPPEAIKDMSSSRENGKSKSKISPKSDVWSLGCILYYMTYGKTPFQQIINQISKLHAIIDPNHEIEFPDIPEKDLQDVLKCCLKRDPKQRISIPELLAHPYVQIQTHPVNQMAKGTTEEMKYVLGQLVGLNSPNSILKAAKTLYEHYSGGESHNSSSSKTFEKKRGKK
Format: biochemical
Experimental: The human kinase Mps-1 phosphorylates a biotinylated substrate peptide. Detection of the phosphorylated product is achieved by time-resolved fluorescence resonance energy transfer (TR-FRET) from Europium-labelled anti-phospho-Serine/Threonine antibody as donor to streptavidin labelled with cross-linked allophycocyanin (SA-XLent) as acceptor. Compounds are tested for their inhibition of the kinase activity.
N-terminally GST-tagged human full length recombinant Mps-1 kinase (purchased from Invitrogen, Karslruhe, Germany, cat. no PV4071) was used. As substrate for the kinase reaction a biotinylated peptide of the amino-acid sequence biotin-Ahx-PWDPDDADITEILG (C-terminus in amide form, purchased from Biosyntan GmbH, Berlin) was used.
For the assay 50 nl of a 100-fold concentrated solution of the test compound in DMSO was pipetted into a black low volume 384we11 microtiter plate (Greiner Bio-One, Frickenhausen, Germany), 2 μl of a solution of Mps-1 in assay buffer [0.1 mM sodium-ortho-vanadate, 10 mM MgCl2,2 mM DTT, 25 mM Hepes pH 7.7, 0.05% BSA (w/v), 0.001% Pluronic F-127] were added and the mixture was incubated for 15 min at 22° C. to allow pre-binding of the test compounds to Mps-1 before the start of the kinase reaction. Then the kinase reaction was started by the addition of 3 μl of a solution of 16.7 μM adenosine-tri-phosphate (ATP, 16.7 μM=>final conc. in the 5 μl assay volume is 10 μM) and peptide substrate (1.67 μM=>final conc. in the 5 μl assay volume is 1 μM) in assay buffer and the resulting mixture was incubated for a reaction time of 60 min at 22° C. The concentration of Mps-1 in the assay was adjusted to the activity of the enzyme lot and was chosen appropriate to have the assay in the linear range, typical enzyme concentrations were in the range of about 0.5 nM (final conc. in the 5 μl assay volume). The reaction was stopped by the addition of 5 μl of a solution of TR-FRET detection reagents (100 mM Hepes pH 7.4, 0.1% BSA, 40 mM EDTA, 140 nM Streptavidin-XLent [#61GSTXLB, Fa. Cis Biointernational, Marcoule, France], 1.5 nM anti-phospho(Ser/Thr)-Europium-antibody [#AD0180, PerkinElmer LAS, Rodgau-Jugesheinn, Germany]. Instead of the 1.5 nM anti-phospho(Ser/Thr)-Europium-antibody a mixture of 2 nM unlabeled anti-phospho ser/thr-pro antibody MPM-2 [Millipore cat. #05-368] and 1 nM LANCE EU-W1024 labeled anti-mouse IgG antibody [Perkin-Elmer, product no. AD0077] can be used).
The resulting mixture was incubated 1 h at 22° C. to allow the binding of the phosphorylated peptide to the anti-phospho(Ser/Thr)-Europium-antibody. Subsequently the amount of phosphorylated substrate was evaluated by measurement of the resonance energy transfer from the Europium-labelled anti-phospho(Ser/Thr) antibody to the Streptavidin-XLent. Therefore, the fluorescence emissions at 620 nm and 665 nm after excitation at 350 nm was measured in a Viewlux TR-FRET reader (PerkinElmer LAS, Rodgau-Jugesheinn, Germany). The “blank-corrected normalized ratio” (a Viewlux specific readout, similar to the traditional ratio of the emissions at 665 nm and at 622 nm, in which blank and Eu-donor crosstalk are subtracted from the 665 nm signal before the ratio is calculated) was taken as the measure for the amount of phosphorylated substrate. The data were normalised (enzyme reaction without inhibitor=0% inhibition, all other assay components but no enzyme=100% inhibition).

Structure (SMILES) | IC50
Cc1nsc(Nc2cnc(C(F)(F)F)cn2)c1C(=O)Nc1ccc(F)c(C(N)=O)c1 [Example 151, N-(3-carbamoyl-4-fluorophenyl)-3-methyl-5-{[5-(trifluoromethyl)pyrazin-2-yl]amino}-1,2-thiazole-4-carboxamide] | > 20 µM
Cc1nsc(Nc2cnc(C(F)(F)F)cn2)c1C(=O)Nc1ccc(OC2CCN(CCC(F)(F)F)CC2)nc1 [Example 10, 3-Methyl-5-{[5-(trifluoromethyl)pyrazin-2-yl]amino}-N-(6-{[1-(3,3,3-trifluoropropyl)-piperidin-4-yl]oxy}pyridin-3-yl)-1,2-thiazole-4-carboxamide] | ≥ 20 µM
CNS(=O)(=O)c1ccc(NC(=O)c2c(C)nsc2Nc2cnc3ccccc3n2)cc1 [Example 111, 3-Methyl-N-[4-(methylsulfannoyl)phenyl]-5-(quinoxalin-2-ylamino)-1,2-thiazole-4-carboxamide] | ≥ 20 µM
Cc1nsc(Nc2cnc(C(F)(F)F)cn2)c1C(=O)Nc1ccc(OC2CCN(CCC(F)(F)F)CC2)nc1 [Example 426, 3-Methyl-5-{[5-(trifluoromethyl)pyrazin-2-yl]amino}-N-(6-{[1-(3,3,3-trifluoro-propyl)piperidin-4-yl]oxy}pyridin-3-yl)-1,2-thiazole-4-carboxamide, Salt with Hydrochloric Acid] | ≥ 20 µM
COc1ccc(NC(=O)c2c(C)nsc2Nc2ccc(C#N)cn2)c(N2CCOCC2)n1 [Example 173, 5-[(5-cyanopyridin-2-yl)amino]-N-[6-methoxy-2-(morpholin-4-yl)pyridin-3-yl]-3-methyl-1,2-thiazole-4-carboxamide] | > 20 µM
Cc1nsc(Nc2cnc3ccccc3n2)c1C(=O)Nc1ccc(C(=O)NCCN2CCCC(F)(F)C2)cc1 [Example 156, N-(4-{[2-(3,3-difluoropiperidin-1-yl)ethyl]carbamoyl}phenyl)-3-methyl-5-(quinoxalin-2-ylamino)-1,2-thiazole-4-carboxamide] | > 20 µM
Cc1nsc(Nc2cnc(C(F)(F)F)cn2)c1C(=O)Nc1ccc(OCC2CCN(CCF)C2)nc1 (stereo not shown) [Example 121, N-(6-{[1-(2-fluoroethyl)pyrrolidin-3-yl]methoxy}pyridin-3-yl)-3-methyl-5-{[5-(trifluoromethyl)pyrazin-2-yl]amino}-1,2-thiazole-4-carboxamide] | ≥ 20 µM
Cc1nsc(Nc2cnc(C(F)(F)F)cn2)c1C(=O)Nc1ccc(OC2CCN(CC(F)F)CC2)c(F)c1 [Example 164, N-(4-{[1-(2,2-difluoroethyl)piperidin-4-yl]oxy}-3-fluorophenyl)-3-methyl-5-{[5-(trifluoromethyl)pyrazin-2-yl]amino}-1,2-thiazole-4-carboxamide] | > 20 µM
Cc1nsc(Nc2cnc(C(F)(F)F)cn2)c1C(=O)Nc1ccc(C(=O)NC2CCN(CC(F)(F)F)CC2)cc1 [Example 165, 3-methyl-N-(4-{[1-(2,2,2-trifluoroethyl)piperidin-4-yl]carbamoyl}phenyl)-5-{[5-(trifluoromethyl)pyrazin-2-yl]amino}-1,2-thiazole-4-carboxamide] | > 20 µM
CC(=O)N(C)CCOc1ccc(NC(=O)c2c(C)nsc2Nc2nc3c(C(F)(F)F)cccc3s2)cn1 [Example 112, N-(6-{2-[Acetyl(methyl)amino]-ethoxy}pyridin-3-yl)-3-methyl-5-{[4-(trifluoromethyl)-1,3-benzothiazol-2-yl]amino}-1,2-thiazole-4-carboxamide] | ≥ 20 µM
CC(=O)Nc1cc(NC(=O)c2c(C)nsc2Nc2ccc(C#N)cn2)ccc1F [Example 152, N-(3-acetamido-4-fluorophenyl)-5-[(5-cyanopyridin-2-yl)amino]-3-methyl-1,2-thiazole-4-carboxamide] | > 20 µM

The remaining lines, values ahead:

IC50 | Structure (SMILES)
13 µM | Cc1nsc(Nc2cnc3ccccc3n2)c1C(=O)Nc1cccc(C(=O)N[C@@H](CCC(N)=O)C(=O)O)c1 [Example 103, N^2-[3-({[3-Methyl-5-(quinoxalin-2-ylamino)-1,2-thiazol-4-yl]carbonyl}amino)-benzoyl]glutamine]
> 20 µM | Cc1nsc(Nc2cnc(C(F)(F)F)cn2)c1C(=O)Nc1ccc(OC[C@@H]2CCN(CCC(F)(F)F)C2)nc1 [Example 129, 3-Methyl-5-{[5-(trifluoromethyl)pyrazin-2-yl]amino}-N-(6-{[(3R)-1-(3,3,3-trifluoropropyl)pyrrolidin-3-yl]methoxy}pyridin-3-yl)-1,2-thiazole-4-carboxamide]
> 20 µM | Cc1nsc(Nc2cnc(C(F)(F)F)cn2)c1C(=O)Nc1ccc(O[C@@H]2CCN(CCC(F)(F)F)C[C@@H]2F)nc1 [Example 139, N-(6-{[(3S,4R)-3-fluoro-1-(3,3,3-trifluoropropyl)piperidin-4-yl]oxy}pyridin-3-yl)-3-methyl-5-{[5-(trifluoromethyl)pyrazin-2-yl]amino}-1,2-thiazole-4-carboxamide]
≥ 20 µM | Cc1nsc(Nc2cnc3ccccc3n2)c1C(=O)Nc1cccc(C(=O)N2CCN(C)CC2)c1 [Example 102, 3-Methyl-N-{3-[(4-methylpiperazin-1-yl)carbonyl]phenyl}-5-(quinoxalin-2-ylamino)-1,2-thiazole-4-carboxamide]
9 µM | Cc1nsc(Nc2cnc3ccccc3n2)c1C(=O)Nc1cccc(C(=O)NCC(=O)O)c1 [Example 99, N-[3-({[3-Methyl-5-(quinoxalin-2-ylamino)-1,2-thiazol-4-yl]carbonyl}amino)benzoy]-glycine]
> 20 µM | Cc1nsc(Nc2cnc(C(F)(F)F)cn2)c1C(=O)Nc1ccc(OC2CCN(CCF)CC2)c(F)c1 [Example 162, N-(3-fluoro-4-{[1-(2-fluoroethyl)piperidin-4-yl]oxy}phenyl)-3-methyl-5-{[5-(trifluoromethyl)pyrazin-2-yl]amino}-1,2-thiazole-4-carboxamide]
> 20 µM | Cc1nsc(Nc2ccc(C#N)cn2)c1C(=O)Nc1ccc(N[C@@H](C)C(=O)OC(C)(C)C)nc1 [Example 170, tert-butyl N-{5-[({5-[(5-cyanopyridin-2-yl)amino]-3-methyl-1,2-thiazol-4-yl}carbonyl)amino]pyridin-2-yl}alaninate]
≥ 20 µM | Cc1nsc(Nc2cnc3ccccc3n2)c1C(=O)Nc1cccc(-c2nc(C(C)(C)C)no2)c1 [Example 108, N-[3-(3-tert-Butyl-1,2,4-oxadiazol-5-yl)phenyl]-3-methyl-5-(quinoxalin-2-ylamino)-1,2-thiazole-4-carboxamide]
